Consider twelve compounds from ChEMBL document CHEMBL6074624, “FDA-approved small molecule kinase inhibitors for cancer treatment (2001-2015): Medical indication, structural optimization, and binding mode Part I” (Bioorg Med Chem, 2024).

Series [1] concerns SK-MEL-28. Kind of series: Antiproliferative activity against human SK-MEL-28 cells assessed as reduction in cell growth after 3 days by MTT assay. It counts as functional, cell-based. The conditions noted are these: SK-MEL-28, 72 h.
The nature of series [2]: Clearance in Sprague-Dawley rat at 5 mg/kg, po. The conditions noted are these: in vivo. It counts as ADME, organism-based.
The subject of a further series is NCI-H1975. In words: Antitumor activity against human NCI-H1975 cells xenografted in female nude mouse assessed as tumor growth inhibition at 20 mg/kg, po adminstered once daily for 25 days relative to control. It counts as functional. The following applies: NCI-H1975, 600 h, time 25 day, read-out: TGI. A general note: Xenograft models place foreign cells or tissue in a host animal.

In series [3] the test system is MDA-MB-231. In words: Antitumor activity against human MDA-MB-231 cells xenografted in athymic nude mouse assessed as tumor growth inhibition at 20 mg/kg, po administered once daily for 11 days relative to control. The series is classed as functional. The conditions noted are these: MDA-MB-231, 264 h, time 11 day, read-out: TGI.
For series [4], the system named is KARPAS-299. Kind of series: cells. The conditions noted are these: Homo sapiens, KARPAS-299, 24 h.
The test system of series [5] is KARPAS-299. Kind of series: Antitumor activity against ALK positive human KARPAS-299 cells xenografted in RNU nude rat assessed as tumor growth inhibition at 6.25 mg/kg, po administered for 2 weeks relative to control. It counts as functional. The conditions noted are these: KARPAS-299, 336 h, read-out: TGI.
For series [6], the system named is KARPAS-299. In words: Antitumor activity against ALK positive human KARPAS-299 cells xenografted in RNU nude rat assessed as tumor growth inhibition at 12.5 mg/kg, po administered for 2 weeks relative to control. The following applies: KARPAS-299, 336 h, read-out: TGI. The series is classed as functional.
For series [7], the system named is KARPAS-299. Kind of series: Antitumor activity against ALK positive human KARPAS-299 cells xenografted in RNU nude rat assessed as tumor growth inhibition at 25 mg/kg, po administered for 2 weeks relative to control. The conditions noted are these: KARPAS-299, 336 h, read-out: TGI. The series is classed as functional.
The subject of series [8] is NCI-H2228. In words: Antitumor activity against ALK positive human NCI-H2228 cells xenografted in RNU nude rat assessed as tumor growth inhibition at 5 mg/kg, po administered for 2 weeks relative to control. It counts as functional. The following applies: NCI-H2228, 336 h, read-out: TGI.
Series [9] relates to NCI-H2228. In words: Antitumor activity against ALK positive human NCI-H2228 cells xenografted in RNU nude rat assessed as tumor growth inhibition at 10 mg/kg, po administered for 2 weeks relative to control. It counts as functional. The following applies: NCI-H2228, 336 h, read-out: TGI.
For another series, the system named is Caco-2. Kind of series: Cytotoxicity against human Caco-2 cells assessed as reduction in cell viability. It counts as functional, cell-based.
For series [10], the target named is Dual specificity mitogen-activated protein kinase kinase 1 (Homo sapiens, UniProt Q02750). Kind of series: Inhibition of MEK1 (unknown origin) phosphorylation by [gamma-33P]-ATP assay.
Dual specificity mitogen-activated protein kinase kinase 1, sequence (Q02750 whole entry): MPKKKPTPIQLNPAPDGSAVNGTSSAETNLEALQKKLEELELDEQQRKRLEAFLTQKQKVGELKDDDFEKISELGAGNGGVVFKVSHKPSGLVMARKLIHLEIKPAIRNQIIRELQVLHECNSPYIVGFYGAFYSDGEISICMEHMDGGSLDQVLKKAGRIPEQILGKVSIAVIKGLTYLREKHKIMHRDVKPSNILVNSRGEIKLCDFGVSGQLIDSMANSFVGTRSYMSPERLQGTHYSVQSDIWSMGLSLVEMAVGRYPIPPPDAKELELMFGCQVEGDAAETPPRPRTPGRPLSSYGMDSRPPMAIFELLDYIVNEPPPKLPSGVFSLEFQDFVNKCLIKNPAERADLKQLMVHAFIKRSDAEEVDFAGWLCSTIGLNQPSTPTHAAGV
Series [11] in a line: Antiproliferative activity against human MDA-MB-231T cells assessed as reduction in cell viability. It counts as functional, cell-based.
A short description of series [12]: Antitumor activity against human MDA-MB-231T cells xenografted in mouse assessed as tumor growth inhibition at 1 mg/kg, po relative to control. It counts as functional. The following applies: read-out: TGI.
Series [13] can be described thus: Antitumor activity against human MDA-MB-231T cells xenografted in mouse assessed as tumor growth inhibition at 3 mg/kg, po relative to control. The series is classed as functional. The conditions noted are these: read-out: TGI.
The nature of series [14]: Oral bioavailability in human at 5 mg/kg. The conditions noted are these: in vivo. It counts as ADME, organism-based.
Series [15] in a line: Intrinsic clearance in rat. The series is classed as ADME.
The test system of series [16] is SK-MEL-28. Kind of series: Cytotoxicity against human SK-MEL-28 cells assessed as reduction in cell viability after 24 hrs by MTT assay. The series is classed as functional, cell-based. The conditions noted are these: SK-MEL-28, 24 h. On the technique in general: Formazan colour is commonly taken as a measure of viable cells.
The test system of a further series is Ramos. In words: cells. The conditions noted are these: Homo sapiens.
The subject of another series is Jurkat. Kind of series: cells. The conditions noted are these: Homo sapiens.
The nature of series [17]: Toxicity in ICR mouse assessed as maximal tolerated dose measured for 7 days. The conditions noted are these: in vivo, time 7 day.
A further series deals with COLO 205. Kind of series: Antitumor activity against human COLO 205 cells xenografted in nu/nu CD-1 mouse assessed as reduction in tumor growth at 100 mg/kg, po administered once daily for 14 days relative to control. It counts as functional. The conditions noted are these: COLO 205, 336 h, time 14 day, read-out: TGI.
Series [18] concerns MDA-MB-231. Kind of series: Antitumor activity against human MDA-MB-231 cells xenografted in nu/nu CD-1 mouse assessed as reduction in tumor growth at 3 mg/kg, po administered once daily for 14 days relative to control. It counts as functional. The conditions noted are these: MDA-MB-231, 336 h, time 14 day, read-out: TGI.
The next series has as its system 786-0. In words: Antitumor activity against human 786-0 cells xenografted in nu/nu CD-1 mouse assessed as reduction in tumor growth at 10 mg/kg, po administered once daily for 21 days relative to control. It counts as functional. The conditions noted are these: 786-0, 504 h, time 21 day, read-out: TGI.
A further series relates to ACHN. In words: Antiproliferative activity against human ACHN cells assessed as reduction in cell viability measured after 48 hrs by SRB assay. It counts as functional, cell-based. On the technique in general: The SRB assay estimates cell density from bound dye.
In a further series the test system is HT-29. Kind of series: Antiproliferative activity against human HT-29 cells assessed as reduction in cell viability after 72 hrs by MTS assay. The series is classed as functional, cell-based. The following applies: HT-29, 72 h.
Series [19] in a line: Solubility of compound in PBS at pH 7.4. The series is classed as physicochemical.
The nature of series [20]: Permeability of compound in human Caco-2 cells […]. The conditions noted are these: read-out: permeability. It counts as ADME, cell-based.
Series [21] is described as follows: AUC in human. The series is classed as ADME.
The nature of series [22]: Oral bioavailability in human. The series is classed as ADME, organism-based. The following applies: in vivo.
The test system of series [23] is A549. Kind of series: Antitumor activity against human A549 cells harboring KRAS G12S mutant xenografted in athymic nude mouse assessed as tumor growth inhibition at 5 mg/kg, po administered once daily for 21 days relative to control. The conditions noted are these: A549, 504 h, time 21 day, read-out: TGI. It counts as functional.
In series [24] the test system is A549. In words: Antitumor activity against human A549 cells harboring KRAS G12S mutant xenografted in athymic nude mouse assessed as tumor growth inhibition at […], po administered once daily for 21 days relative to control. The series is classed as functional. The following applies: A549, 504 h, dose 2.5 mg/kg, time 21 day, read-out: TGI.
Series [25] relates to A549. Kind of series: Antitumor activity against human A549 cells harboring KRAS G12S mutant xenografted in athymic nude mouse assessed as tumor growth inhibition at 0.5 mg/kg, po administered once daily for 21 days relative to control. It counts as functional. The following applies: A549, 504 h, time 21 day, read-out: TGI.
Series [26] has as its system A549. In words: Antitumor activity against human A549 cells harboring KRAS G12S mutant xenografted in athymic nude mouse assessed as tumor growth inhibition at 0.1 mg/kg, po administered once daily for 21 days relative to control. The series is classed as functional. The following applies: A549, 504 h, time 21 day, read-out: TGI.

Values after ≈ are worked out from the molar mass of the structure shown.

What is called EC50 is the concentration at which the effect is half-maximal. Regarding `CC(=O)N1CCN(c2ccc(Nc3nccc(-c4sc(C(C)C)nc4-c4cccc(NS(=O)(=O)c5ccccc5)c4)n3)cn2)CC1`, the EC50 with SK-MEL-28 [1] was 24 nM.
Compound `O=C(c1ccc(F)c(F)c1Nc1ccc(I)cc1F)N1CC(O)C1` yielded a CL in [2] of 8.324 mL/min/kg.
On to `CN(C)C/C=C/C(=O)Nc1cc2c(Nc3ccc(F)c(Cl)c3)ncnc2cc1O[C@H]1CCOC1` [AFATINIB], for which the inhibition in vivo at 20 mg/kg with NCI-H1975 was determined as 12%.
One may read the IC50 as the concentration that inhibits the measured activity by half. Take `CCc1cc2c(cc1N1CCC(N3CCOCC3)CC1)C(C)(C)c1[nH]c3cc(C#N)ccc3c1C2=O` [ALECTINIB]: the inhibition in vivo at 20 mg/kg with MDA-MB-231 [3] was 119%. The compound further returned a 50% inhibitory concentration (IC50) in the series with KARPAS-299 [4] of 12.8 nM.
Take `Cc1cc(Nc2ncc(Cl)c(Nc3ccccc3S(=O)(=O)C(C)C)n2)c(OC(C)C)cc1C1CCNCC1` [CERITINIB]: the inhibition in vivo at 6.25 mg/kg in the series with KARPAS-299 [5] amounted to 74%. Further, in the series on KARPAS-299 [6], the inhibition in vivo at 12.5 mg/kg came to 30%. For the same compound, in the series with KARPAS-299 [7], the inhibition in vivo at 25 mg/kg stood at 33%. In the series with NCI-H2228 [8], the inhibition in vivo at 5 mg/kg came out at 67%. For the same compound, the inhibition in vivo at 10 mg/kg in the series with NCI-H2228 [9] was 2%.
Turning to `O=C(NOCC1CC1)c1ccc(F)c(F)c1Nc1ccc(I)cc1Cl` [CI-1040], in the series with Caco-2, the IC50 amounted to 35 nM.
One may read the bioavailability as the share of a dose that reaches the circulation, judged against a reference dose that is usually intravenous. Lower therefore signals poor availability. Regarding `O=C(c1ccc(F)c(F)c1Nc1ccc(I)cc1F)N1CC(O)([C@@H]2CCCCN2)C1` [COBIMETINIB], the concentration for half-maximal inhibition (IC50) in series [10] was determined as 6.6 nM; in series [11], 0.2 nM. Besides, in series [12], the inhibition in vivo at 1 mg/kg is 60%. Further, the inhibition in vivo at 3 mg/kg in [13] came out at 93%. This compound also yielded a bioavailability in series [14] of 77%.
As to `CC(C)(C)c1nc(-c2cccc(NS(=O)(=O)c3c(F)cccc3F)c2F)c(-c2ccnc(N)n2)s1` [DABRAFENIB], the clearance in series [15] is 19 mL/min/kg. The 50% inhibitory concentration (IC50) in the series with SK-MEL-28 [16] turned out to be 3 nM.
Take `C=CC(=O)N1CCC[C@@H](n2nc(-c3ccc(Oc4ccccc4)cc3)c3c(N)ncnc32)C1` [IBRUTINIB]: the values for the IC50 in the series on Ramos and in the series with Jurkat were 40 nM and 470 nM, respectively.
Broadly, the MTD is the largest dose that counted as tolerated. For `O=C(NOC[C@H](O)CO)c1ccc(F)c(F)c1Nc1ccc(I)cc1F` [MIRDAMETINIB], the maximum tolerated dose (MTD) at 168 h in series [17] stood at 25 mg/kg.
With `CNC(=O)c1cc(Oc2ccc(NC(=O)Nc3ccc(Cl)c(C(F)(F)F)c3)c(F)c2)ccn1` [REGORAFENIB], the inhibition in vivo at 100 mg/kg in the series with COLO 205 turned out to be 75%. The inhibition in vivo at 3 mg/kg with MDA-MB-231 [18] was 81%. The inhibition in vivo at 10 mg/kg in the series on 786-0 was over 90%.
By solubility is commonly meant the dissolved amount per volume that the medium holds. The AUC is the area under the concentration-time curve, a measure of exposure. High values mean high exposure, low ones low exposure. Take `CC(=O)Nc1cccc(-n2c(=O)n(C3CC3)c(=O)c3c(Nc4ccc(I)cc4F)n(C)c(=O)c(C)c32)c1` [TRAMETINIB]: the IC50 stood at 9.8 nM with ACHN and 0.57 nM in the series on HT-29. In addition, in series [19], the solubility turned out to be 5.3 µM (≈ 3.26 µg/mL). In addition, the Papp in series [20] was determined as 26 ×10⁻⁶ cm/s. For the same compound, the area under the curve (AUC) in [21] was 88.3 µM·h. Also, the bioavailability in series [22] was 30%. Also, the inhibition in vivo at 5 mg/kg with A549 [23] was 92%. In the series with A549 [24], the inhibition in vivo at […] worked out at 87%. In addition, the inhibition in vivo at 0.5 mg/kg with A549 [25] amounted to 62%. In addition, the inhibition in vivo at 0.1 mg/kg in the series with A549 [26] turned out to be 58%.
